Data from PubChem BioAssay AID2060901 (Molecular Pharmacology Branch, DTP, NCI, 2025).
pIC50: −log10 of the molar value. Several values for one entry are separate records, joined by “and”; a condition that tells them apart may be missing. Equal entries are not always repeated.

Test system: 422866-222-R5-J1-PDC complex spheroids viability
Experiment: Anticancer human tumor 422866-222-R5-J1-PDC patient-derived pancreatic adenocarcinoma cell line growth inhibition [RAS]
Conditions: for viability, T/C: stronger effect = lower value
Excerpt: RAS pathway inhibitors in Combinations in Complex Spheroids
A high-throughput screen of multi-cell type tumor spheroids was designed to identify active combinations of RAS pathway inhibitors and targeted small molecules. Complex spheroids include a stromal component modeled by human endothelial cells (HUVEC) and fibroblasts modeled by human mesenchymal stem cells (MSCs). The concentration ranges selected for each drug and investigational agent were based upon clinically achievable concentrations if the clinical Cmax of the agent was known.
Compounds. The drugs and investigational agents: abemaciclib (NSC768073), cobimetinib (NSC768068), divarasib (GDC6063, NSC841802), docetaxel (NSC628503), GDC-1971 (RLY-1971, NSC841576), gemcitabine (NSC613327), inavolisib (NSC800729), ipatasertib (NSC767898), KB-0742 (NSC834161), MRTX-1133 (NSC836407), osimertinib (NSC779217), RMC-4630 (NSC839698), RMC-6236 (NSC851965), RMC-6291 (NSC852671), Ro-3306 (NSC812927), sapanisertib (NSC764658), SN-38 (NSC673596), staurosporine (NSC755774), SY5609 (NSC837396), and tovorafenib (DAY101, NSC766906), were obtained from the National Cancer Institute (NCI) Developmental Therapeutics Program Chemical Repository. The FDA-approved anticancer drug set is available from the NCI Developmental Therapeutics Program. […] The stock solutions were prepared in dimethyl sulfoxide (DMSO, Sigma-Aldrich, St. Louis, MO, cat. D2650) at 800-fold the tested concentration and stored at -70 degrees C prior to their use. All drugs and investigational agents were tested over a range starting from a high concentration at or near the clinical Cmax and decreasing in half-log increments. If the clinical Cmax for an agent had not been determined, the highest concentration tested was 10 microM.
Cell Culture. All cells were maintained in an incubator at 37 degrees C and 5% CO2 with 95% humidity. The PDC lines were cultured according to standard operating procedures established by the NCI PDMR. All PDCs were thawed and cultured in Matrigel-coated flasks prepared with a working solution of 1X Ham's F-12 nutrient mix, without supplementation (Invitrogen, Waltham, MA, cat. 11765054), 100 U/mL penicillin-streptomycin (Invitrogen, cat. 15140122), and 2.5% Matrigel (Corning Inc., Corning, NY, cat. 354248) for the first three passages. The 362531-283-R-J2-PDC and 782815-120-R-J1-PDC lines were cultured in 6C/Colon 1B media, which includes advanced DMEM/F-12 (Thermo Fisher Scientific, cat. 12634028), 10 mM HEPES (Thermo Fisher Scientific, cat. 15630080), 1X GlutaMAX supplement (Thermo Fisher Scientific, cat. 35050061), 0.1 mg/mL primocin (InvivoGen, San Diego, CA, cat. ant-pm-2), 10% defined fetal bovine serum, heat inactivated (HyClone Laboratories Inc., Logan, UT, cat. SH30070.03HI), 50% L-WRN conditioned media (ATCC, cat. CRL-3276), 1.25 mM N-Acetyl-L-cysteine (Sigma-Aldrich, cat. A9165), 10 mM nicotinamide (Sigma-Aldrich, cat. N0636), 1X B-27 supplement (Thermo Fisher Scientific, cat. 17504044), 1X N-2 supplement (Thermo Fisher Scientific, cat. 17502048), 50 ng/mL human EGF (Thermo Fisher Scientific, cat. PHG0311), and 10 microM Y-27632 dihydrochloride (Tocris Bioscience, cat. 1254). The K12877-001-R-J1-PDC line was cultured in 6I media, which includes all 6C/Colon 1B media plus 10 ng/mL human FGF-10 (PeproTech, cat. 100-26), 1 ng/mL human FGF-2 (PeproTech, cat. 100-18B), 1 µM prostaglandin E2 (Tocris Bioscience, cat. 2296), […] hydrocortisone (Sigma-Aldrich, cat. H4001), and […] bovine insulin (Sigma-Aldrich, cat. I6634). The K86415-001-R-J1-PDC line was cultured in 6D media, which includes all 6C/Colon 1B media components minus the L-WRN conditioned media. The 485176-168-R4-J1-PDC was cultured in PANC media, which includes all 6C/Colon 1B media plus 100 ng/mL human FGF-10 (PeproTech, cat. 100-26), 500 nM SB-431542 (Selleckchem, cat. S1067), and 10 nM gastrin (Tocris Bioscience, cat. 3006). […]

[1] = compound alone, run of 06/10/2024
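Note: spheroids exposed to compounds for 7 days.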
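Throughout, for viability, T/C: 100% = DMSO vehicle control viability.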

C#Cc1c(F)ccc2cc(O)cc(-c3ncc4c(N5CC6CCC(C5)N6)nc(OCC56CCCN5CC(F)C6)nc4c3F)c12 (stereo not given)
viability, T/C (compound 0.0316 µM): 98.7% [middle of 8 runs]
viability, T/C (compound 0.316 µM): 67.4% [middle of 8 runs]
viability, T/C (compound 1 µM): 51.8% [middle of 8 runs]
viability, T/C (compound 3.16 µM): 37.3% [middle of 8 runs]
viability, T/C (compound 10 µM): 26.2% [middle of 8 runs]
IC50 [1]: 1.11 µM [middle of 8 runs]

C=CC(=O)N1CCN(c2nc(OCC3CCCN3C)nc3c(F)c(-c4nc(N)cc(C)c4C(F)(F)F)c(Cl)cc23)C(C)C1 (stereo not given)
viability, T/C (compound 0.00316 µM): 28% [middle of 12 runs]
viability, T/C (compound 0.01 µM): 27.2% [middle of 12 runs]
viability, T/C (compound 0.0316 µM): 24.1% [middle of 12 runs]
viability, T/C (compound 0.1 µM): 24.8% [middle of 12 runs]
viability, T/C (compound 0.316 µM): 26.7% [middle of 12 runs]
viability, T/C (compound 1 µM): 26.5% [middle of 12 runs]
pIC50 [1]: > 8.50
pIC50 (curve of compound): > 8.50

C=CC(=O)Nc1cc(Nc2nccc(-c3cn(C)c4ccccc34)n2)c(OC)cc1N(C)CCN(C)C
viability, T/C (compound 0.00316 µM): 106% [middle of 4 runs]
viability, T/C (compound 0.01 µM): 74.7% and 114% (2×) and 81.9%
viability, T/C (compound 0.0316 µM): 87.1% [middle of 4 runs]
viability, T/C (compound 0.316 µM): 77.7% [middle of 4 runs]
pIC50 (curve of compound): < 6.00

CC(=O)OC12COC1CC(O)C1(C)C(=O)C(O)C3=C(C)C(OC(=O)C(O)C(NC(=O)OC(C)(C)C)c4ccccc4)CC(O)(C(OC(=O)c4ccccc4)C21)C3(C)C (stereo not given)
viability, T/C (compound 0.0316 µM): 60% [middle of 4 runs]
viability, T/C (compound 0.1 µM): 71.8% [middle of 4 runs]
viability, T/C (compound 0.316 µM): 71.4% [middle of 4 runs]
viability, T/C (compound 1 µM): 78.2% [middle of 4 runs]
viability, T/C (compound 10 µM): 77.4% [middle of 4 runs]
pIC50 (curve of compound): < 5.00

CC(C)NCC(C(=O)N1CCN(c2ncnc3c2C(C)CC3O)CC1)c1ccc(Cl)cc1 (stereo not given)
viability, T/C (compound 0.0316 µM): 92.2% [middle of 4 runs]
viability, T/C (compound 0.1 µM): 93.6% [middle of 4 runs]
viability, T/C (compound 10 µM): 133% (2×) and 147% and 160%
pIC50 (curve of compound): < 5.00

CC(C)n1nc(-c2ccc3oc(N)nc3c2)c2c(N)ncnc21
viability, T/C (compound 0.000316 µM): 103% [middle of 4 runs]
viability, T/C (compound 0.001 µM): 82.4% [middle of 4 runs]
viability, T/C (compound 0.01 µM): 94% [middle of 4 runs]
pIC50 (curve of compound): < 7.00

CC(Nc1ccc2c(c1)OCCn1cc(N3C(=O)OCC3C(F)F)nc1-2)C(N)=O (stereo not given)
viability, T/C (compound 0.0316 µM): 75.3% [middle of 4 runs]
viability, T/C (compound 0.1 µM): 53.4% [middle of 4 runs]
viability, T/C (compound 0.316 µM): 42.6% [middle of 4 runs]
viability, T/C (compound 1 µM): 39.3% [middle of 4 runs]
viability, T/C (compound 10 µM): 26.1% and 23.8% and 27% (2×)

CC1(C)CCC(Nc2ncc(C(F)(F)F)c(-c3c[nH]c4c(P(C)(C)=O)c(C#N)ccc34)n2)CN1 (stereo not given)
viability, T/C (compound 0.003 µM): 93% [middle of 4 runs]
viability, T/C (compound 0.00949 µM): 78.1% [middle of 4 runs]
viability, T/C (compound 0.03 µM): 73.1% [middle of 4 runs]
viability, T/C (compound 0.0949 µM): 67.2% [middle of 4 runs]
viability, T/C (compound 0.3 µM): 69.9% [middle of 4 runs]
pIC50 (curve of compound): < 6.52

CC1(O)CCCC1n1c(=O)c(C(F)F)cc2cnc(NC3CCN(S(C)(=O)=O)CC3)nc21 (stereo not given)
viability, T/C (compound 0.0316 µM): 82.7% [middle of 4 runs]
viability, T/C (compound 0.316 µM): 85.5% [middle of 4 runs]
viability, T/C (compound 1 µM): 91.1% [middle of 4 runs]
viability, T/C (compound 10 µM): 58.4% [middle of 4 runs]
pIC50 (curve of compound): 5.05 and < 5.00 and 5.03

CCC(CC)c1cc(NC2CCC(N)C2)n2nccc2n1 (stereo not given)
viability, T/C (compound 0.0316 µM): 99.2% [middle of 4 runs]
viability, T/C (compound 0.316 µM): 116% [middle of 4 runs]
viability, T/C (compound 1 µM): 106% [middle of 4 runs]
viability, T/C (compound 3.16 µM): 29.1% [middle of 4 runs]
viability, T/C (compound 10 µM): 37.6% [middle of 4 runs]
IC50 (curve of compound): 2.36 µM [middle of 4 runs]
